Read-outs that look alike come from different tables or passages of the source.
Molecular target: T7 RNA polymerase (Escherichia phage T7, UniProt P00573)
Settings: for Composition of nucleotide incorporated as 5′ neighbor of U: Ap / Composition of nucleotide incorporated as 5′ neighbor of U: Gp / Composition of nucleotide incorporated as 5′ neighbor of U: Np (Dsp) / Composition of nucleotide incorporated as 5′ neighbor of U: Up / Composition of nucleotide incorporated as 5′ neighbor of U: Cp: [α-32P]UTP; for Composition of nucleotide incorporated as 5′ neighbor of A: Up / Composition of nucleotide incorporated as 5′ neighbor of A: Np (Dsp) / Composition of nucleotide incorporated as 5′ neighbor of A: Ap / Composition of nucleotide incorporated as 5′ neighbor of A: Gp / Composition of nucleotide incorporated as 5′ neighbor of A: Cp: [α-32P]ATP; for Composition of nucleotide incorporated as 5′ neighbor of A: Cp: theoretical [7]
[1] = Entry 14, template temp35Pa-4, natural NTP 1 mM, Ds 1 mM, theoretical [0]
[2] = Entry 14, template temp35Pa-4, natural NTP 1 mM, Ds 1 mM, theoretical [1]
[3] = Entry 15, template temp35Pa-4, natural NTP 1 mM, Ds 3 mM, theoretical [0]
[4] = Entry 15, template temp35Pa-4, natural NTP 1 mM, Ds 3 mM, theoretical [1]
[5] = Entry 16, template temp35Pa′-4, natural NTP 1 mM, Ds 1 mM, theoretical [0]
[6] = Entry 16, template temp35Pa′-4, natural NTP 1 mM, Ds 1 mM, theoretical [1]
[7] = Entry 17, template temp35Pa′-4, natural NTP 1 mM, Ds 3 mM, theoretical [0]
[8] = Entry 17, template temp35Pa′-4, natural NTP 1 mM, Ds 3 mM, theoretical [1]
[9] = Entry 18, template temp35C-4, natural NTP 1 mM, Ds 1 mM, theoretical [0]
[10] = Entry 18, template temp35C-4, natural NTP 1 mM, Ds 1 mM, theoretical [1]
[11] = Entry 19, template temp35C-4, natural NTP 1 mM, Ds 3 mM, theoretical [0]
[12] = Entry 19, template temp35C-4, natural NTP 1 mM, Ds 3 mM, theoretical [1]
[13] = Entry 20, template temp35T-4, natural NTP 1 mM, Ds 1 mM, theoretical [0]
[14] = Entry 20, template temp35T-4, natural NTP 1 mM, Ds 1 mM, theoretical [1]
[15] = Entry 21, template temp35T-4, natural NTP 1 mM, Ds 3 mM, theoretical [0]
[16] = Entry 21, template temp35T-4, natural NTP 1 mM, Ds 3 mM, theoretical [1]
[17] = Entry 29, template DNA14, natural NTP 2 mM, Ds 2 mM, theoretical [6]
[18] = Entry 31, template DNAcont4, natural NTP 2 mM, Ds 2 mM, theoretical [6]
[19] = Entry 36, template DNA13, natural NTP 2 mM, Ds 2 mM, theoretical [4]
[20] = Entry 37, template DNA14, natural NTP 2 mM, Ds 2 mM, theoretical [4]
[21] = Entry 39, template DNAcont4, natural NTP 2 mM, Ds 2 mM, theoretical [4]

T7 RNA polymerase, sequence (P00573 whole entry): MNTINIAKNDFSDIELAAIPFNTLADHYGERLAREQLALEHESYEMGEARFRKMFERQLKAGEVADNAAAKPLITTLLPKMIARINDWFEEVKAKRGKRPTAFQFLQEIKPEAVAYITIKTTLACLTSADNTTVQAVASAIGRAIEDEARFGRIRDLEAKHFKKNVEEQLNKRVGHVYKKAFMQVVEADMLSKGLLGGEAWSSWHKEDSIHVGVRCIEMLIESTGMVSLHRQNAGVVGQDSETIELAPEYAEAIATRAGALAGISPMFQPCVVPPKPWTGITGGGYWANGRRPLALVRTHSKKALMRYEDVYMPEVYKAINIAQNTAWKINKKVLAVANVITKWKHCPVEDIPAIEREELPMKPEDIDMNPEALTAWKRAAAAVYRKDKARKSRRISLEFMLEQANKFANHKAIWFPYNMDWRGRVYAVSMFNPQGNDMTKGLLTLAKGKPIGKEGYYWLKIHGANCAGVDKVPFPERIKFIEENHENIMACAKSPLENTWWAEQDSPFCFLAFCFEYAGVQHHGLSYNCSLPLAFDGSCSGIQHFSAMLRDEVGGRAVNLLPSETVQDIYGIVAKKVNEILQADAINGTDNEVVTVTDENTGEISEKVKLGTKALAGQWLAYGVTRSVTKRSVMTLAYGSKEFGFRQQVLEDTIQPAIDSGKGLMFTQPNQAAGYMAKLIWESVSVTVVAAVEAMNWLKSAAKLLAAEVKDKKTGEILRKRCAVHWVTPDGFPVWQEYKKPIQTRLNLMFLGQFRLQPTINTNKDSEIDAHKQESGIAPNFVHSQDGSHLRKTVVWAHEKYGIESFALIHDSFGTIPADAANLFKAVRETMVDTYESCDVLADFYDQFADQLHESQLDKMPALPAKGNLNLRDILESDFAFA
Experimental: Transcription (20 μl) was accomplished in 40 mM Tris-HCl buffer (pH 8.0) containing 24 mM MgCl2, 2 mM spermidine, 5 mM DTT, 0.01% Triton X-100, 1-3 mM each natural NTP, 0-3 mM Pa′TP, 0-3 mM DsTP, 10 mM GMP, 2 μM template DNA (for 17-mer transcript synthesis) or 0.5 μM template DNA (for tRNA transcript synthesis), and 2.5 units/μl T7 RNA polymerase (TAKARA). […] For nucleotide composition analysis in transcripts (Non-patent Documents 17 and 33), the transcripts were internally labeled with 2 μCi [α-^32P]UTP or [α-^32P]ATP (Amersham). After the transcription, the products were digested with 0.75 units of RNase T2 at 37° C. for 2 hours in 10 μl of 15 mM sodium acetate buffer (pH 4.5). For 17-mer analysis, 0.05 A260 units of E. coli tRNA (Sigma) was added to the digestion reaction solution. The digestion products were analyzed by 2D-TLC (HPTLC plate, 100×100 mm, Merck). The developing solvents used for the first and second dimensions were isobutyric acid-ammonia-water (66:1:33 v/v/v) and isopropyl alcohol-HCl-water (70:15:15 v/v/v or 75:15:10 v/v/v for Pa′ transcripts), respectively. Spots of the labeled nucleotides on the TLC plate were analyzed with a bio-imaging analyzer.
The internally ^32P-labeled transcripts were digested with Rnase T2, and the resulting labeled nucleoside 3′-monophosphates were analyzed by 2D thin-layer chromatography (2D-TLC).

O=P(O)(O)OP(=O)(O)OP(=O)(O)OC[C@H]1O[C@@H](n2cnc3c(-c4cccs4)ccnc32)[C@H](O)[C@@H]1O [DsTP, 7-(2-Thienyl)-3-(β-D-ribofuranosyl)-3H-imidazo[4,5-b]pyridine 5′-triphosphate]
Composition of nucleotide incorporated as 5′ neighbor of U: Ap [1]: 0.02 [0]
Composition of nucleotide incorporated as 5′ neighbor of U: Gp [1]: n.d. [0]
Composition of nucleotide incorporated as 5′ neighbor of U: Np (Dsp) [2]: 0.98 [1]
Composition of nucleotide incorporated as 5′ neighbor of U: Up [2]: 1.00 [1]
Composition of nucleotide incorporated as 5′ neighbor of U: Cp (Entry 14, template temp35Pa-4, natural NTP 1 mM, Ds 1 mM, theoretical [2]): 1.99 [2]
Composition of nucleotide incorporated as 5′ neighbor of U: Ap [3]: 0.01 [0]
Composition of nucleotide incorporated as 5′ neighbor of U: Gp [3]: n.d. [0]
Composition of nucleotide incorporated as 5′ neighbor of U: Np (Dsp) [4]: 0.99 [1]
Composition of nucleotide incorporated as 5′ neighbor of U: Up [4]: 1.01 [1]
Composition of nucleotide incorporated as 5′ neighbor of U: Cp (Entry 15, template temp35Pa-4, natural NTP 1 mM, Ds 3 mM, theoretical [2]): 1.99 [2]
Composition of nucleotide incorporated as 5′ neighbor of U: Ap [5]: 0.05 [0]
Composition of nucleotide incorporated as 5′ neighbor of U: Gp [5]: n.d. [0]
Composition of nucleotide incorporated as 5′ neighbor of U: Np (Dsp) [6]: 0.94 [1]
Composition of nucleotide incorporated as 5′ neighbor of U: Up [6]: 1.02 [1]
Composition of nucleotide incorporated as 5′ neighbor of U: Cp (Entry 16, template temp35Pa′-4, natural NTP 1 mM, Ds 1 mM, theoretical [2]): 1.98 [2]
Composition of nucleotide incorporated as 5′ neighbor of U: Ap [7]: 0.02 [0]
Composition of nucleotide incorporated as 5′ neighbor of U: Gp [7]: n.d. [0]
Composition of nucleotide incorporated as 5′ neighbor of U: Np (Dsp) [8]: 0.96 [1]
Composition of nucleotide incorporated as 5′ neighbor of U: Up [8]: 1.02 [1]
Composition of nucleotide incorporated as 5′ neighbor of U: Cp (Entry 17, template temp35Pa′-4, natural NTP 1 mM, Ds 3 mM, theoretical [2]): 1.99 [2]
Composition of nucleotide incorporated as 5′ neighbor of U: Ap [9]: 0.01 [0]
Composition of nucleotide incorporated as 5′ neighbor of U: Np (Dsp) [9]: n.d. [0]
Composition of nucleotide incorporated as 5′ neighbor of U: Gp [10]: 0.98 [1]
Composition of nucleotide incorporated as 5′ neighbor of U: Up [10]: 1.00 [1]
Composition of nucleotide incorporated as 5′ neighbor of U: Cp (Entry 18, template temp35C-4, natural NTP 1 mM, Ds 1 mM, theoretical [2]): 2.01 [2]
Composition of nucleotide incorporated as 5′ neighbor of U: Ap [11]: 0.01 [0]
Composition of nucleotide incorporated as 5′ neighbor of U: Np (Dsp) [11]: n.d. [0]
Composition of nucleotide incorporated as 5′ neighbor of U: Gp [12]: 0.97 [1]
Composition of nucleotide incorporated as 5′ neighbor of U: Up [12]: 1.00 [1]
Composition of nucleotide incorporated as 5′ neighbor of U: Cp (Entry 19, template temp35C-4, natural NTP 1 mM, Ds 3 mM, theoretical [2]): 2.03 [2]
Composition of nucleotide incorporated as 5′ neighbor of U: Gp [13]: n.d. [0]
Composition of nucleotide incorporated as 5′ neighbor of U: Np (Dsp) [13]: n.d. [0]
Composition of nucleotide incorporated as 5′ neighbor of U: Ap [14]: 0.99 [1]
Composition of nucleotide incorporated as 5′ neighbor of U: Up [14]: 1.02 [1]
Composition of nucleotide incorporated as 5′ neighbor of U: Cp (Entry 20, template temp35T-4, natural NTP 1 mM, Ds 1 mM, theoretical [2]): 1.99 [2]
Composition of nucleotide incorporated as 5′ neighbor of U: Gp [15]: n.d. [0]
Composition of nucleotide incorporated as 5′ neighbor of U: Np (Dsp) [15]: n.d. [0]
Composition of nucleotide incorporated as 5′ neighbor of U: Ap [16]: 0.99 [1]
Composition of nucleotide incorporated as 5′ neighbor of U: Up [16]: 1.01 [1]
Composition of nucleotide incorporated as 5′ neighbor of U: Cp (Entry 21, template temp35T-4, natural NTP 1 mM, Ds 3 mM, theoretical [2]): 2.00 [2]
Composition of nucleotide incorporated as 5′ neighbor of A: Up (Entry 28, template DNA13, natural NTP 2 mM, Ds 2 mM, theoretical [0]): 0.05 [0]
Composition of nucleotide incorporated as 5′ neighbor of A: Np (Dsp) (Entry 28, template DNA13, natural NTP 2 mM, Ds 2 mM, theoretical [1]): 0.96 [1]
Composition of nucleotide incorporated as 5′ neighbor of A: Ap (Entry 28, template DNA13, natural NTP 2 mM, Ds 2 mM, theoretical [5]): 5.04 [5]
Composition of nucleotide incorporated as 5′ neighbor of A: Gp (Entry 28, template DNA13, natural NTP 2 mM, Ds 2 mM, theoretical [6]): 6.02 [6]
Composition of nucleotide incorporated as 5′ neighbor of A: Cp (Entry 28, template DNA13, natural NTP 2 mM, Ds 2 mM): 6.93 [7]
Composition of nucleotide incorporated as 5′ neighbor of A: Up (Entry 29, template DNA14, natural NTP 2 mM, Ds 2 mM, theoretical [0]): 0.03 [0]
Composition of nucleotide incorporated as 5′ neighbor of A: Np (Dsp) (Entry 29, template DNA14, natural NTP 2 mM, Ds 2 mM, theoretical [1]): 0.96 [1]
Composition of nucleotide incorporated as 5′ neighbor of A: Ap [17]: 6.13 [6]
Composition of nucleotide incorporated as 5′ neighbor of A: Gp [17]: 5.96 [6]
Composition of nucleotide incorporated as 5′ neighbor of A: Cp (Entry 29, template DNA14, natural NTP 2 mM, Ds 2 mM): 6.93 [7]
Composition of nucleotide incorporated as 5′ neighbor of A: Np (Dsp) (Entry 31, template DNAcont4, natural NTP 2 mM, Ds 2 mM, theoretical [0]): 0.02 [0]
Composition of nucleotide incorporated as 5′ neighbor of A: Up (Entry 31, template DNAcont4, natural NTP 2 mM, Ds 2 mM, theoretical [1]): 1.09 [1]
Composition of nucleotide incorporated as 5′ neighbor of A: Ap [18]: 6.10 [6]
Composition of nucleotide incorporated as 5′ neighbor of A: Gp [18]: 5.98 [6]
Composition of nucleotide incorporated as 5′ neighbor of A: Cp (Entry 31, template DNAcont4, natural NTP 2 mM, Ds 2 mM): 6.83 [7]
Composition of nucleotide incorporated as 5′ neighbor of U: Np (Dsp) (Entry 36, template DNA13, natural NTP 2 mM, Ds 2 mM, theoretical [0]): n.d. [0]
Composition of nucleotide incorporated as 5′ neighbor of U: Ap (Entry 36, template DNA13, natural NTP 2 mM, Ds 2 mM, theoretical [2]): 2.00 [2]
Composition of nucleotide incorporated as 5′ neighbor of U: Gp [19]: 3.97 [4]
Composition of nucleotide incorporated as 5′ neighbor of U: Up [19]: 4.03 [4]
Composition of nucleotide incorporated as 5′ neighbor of U: Cp (Entry 36, template DNA13, natural NTP 2 mM, Ds 2 mM, theoretical [5]): 4.99 [5]
Composition of nucleotide incorporated as 5′ neighbor of U: Np (Dsp) (Entry 37, template DNA14, natural NTP 2 mM, Ds 2 mM, theoretical [0]): 0.01 [0]
Composition of nucleotide incorporated as 5′ neighbor of U: Ap (Entry 37, template DNA14, natural NTP 2 mM, Ds 2 mM, theoretical [2]): 1.99 [2]
Composition of nucleotide incorporated as 5′ neighbor of U: Cp [20]: 4.02 [4]
Composition of nucleotide incorporated as 5′ neighbor of U: Gp [20]: 3.91 [4]
Composition of nucleotide incorporated as 5′ neighbor of U: Up [20]: 4.08 [4]
Composition of nucleotide incorporated as 5′ neighbor of U: Np (Dsp) (Entry 39, template DNAcont4, natural NTP 2 mM, Ds 2 mM, theoretical [0]): 0.01 [0]
Composition of nucleotide incorporated as 5′ neighbor of U: Ap (Entry 39, template DNAcont4, natural NTP 2 mM, Ds 2 mM, theoretical [2]): 1.99 [2]
Composition of nucleotide incorporated as 5′ neighbor of U: Gp [21]: 3.95 [4]
Composition of nucleotide incorporated as 5′ neighbor of U: Up [21]: 4.05 [4]
Composition of nucleotide incorporated as 5′ neighbor of U: Cp (Entry 39, template DNAcont4, natural NTP 2 mM, Ds 2 mM, theoretical [5]): 5.01 [5]
